Among the data in PubChem BioAssay (NCI) are GI50 and TGI values, retold here.

Some test systems named below: RPMI-8226 leukemia; HOP-62 NSCLC; NCI-H226 lung; T-47D breast; MDA-MB-435; HT29 colon; HCT-15 colon; MDA-MB-231 breast; NCI-H460 lung; SK-MEL-5 melanoma.
Common to all, as to assay: NCI-60 cell line screen, 48 h

Structures are written as SMILES.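 Where inhibition never reached the appropriate level, the endpoint shown equals the highest concentration tested. Otherwise, values were interpolated linearly from a five-concentration, 48-hour dose response in 96-well plates. Abbreviation: GI50, concentration required for 50% inhibition of growth. Definition used: TGI = concentration required for complete inhibition of growth.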

With `CCN(CC)CCOc1ccc(Nc2ncc3cc(-c4c(Cl)cccc4Cl)c(=O)n(CCOC)c3n2)cc1`, the GI50 is 0.921 µM in the test on RPMI-8226 leukemia; 0.0715 µM in the test with HOP-62 NSCLC; 0.1 µM in the test on NCI-H226 lung; 0.133 µM in the test on T-47D breast; 0.469 µM in the test with MDA-MB-435; 0.105 µM in the test with HT29 colon. Further, the GI50 with HCT-15 colon is 0.128 µM; with MDA-MB-231 breast, 0.0432 µM; in the test on NCI-H460 lung, 0.562 µM; with SK-MEL-5 melanoma, 1.51 µM. The TGI stood at 3.15 µM in the test with RPMI-8226 leukemia; 7.05 µM in the test on HOP-62 NSCLC; 7.89 µM in the test with NCI-H226 lung; 16.5 µM with T-47D breast; 2.5 µM with MDA-MB-435; 2.27 µM with HT29 colon. Besides, the TGI is 6.1 µM in the test on HCT-15 colon, 0.813 µM with MDA-MB-231 breast, 4.77 µM in the test with NCI-H460 lung and 5.94 µM in the test on SK-MEL-5 melanoma.

For the compound `OCCCCC#Cc1ccccc1C#Cc1ccccc1F`, the GI50 with RPMI-8226 leukemia was 30.7 µM; with HOP-62 NSCLC, 12 µM; with NCI-H226 lung, 24 µM; in the test on T-47D breast, 16.1 µM; in the test with MDA-MB-435 it was 18.9 µM; with HT29 colon, 52 µM. Moreover, the GI50 in the test on HCT-15 colon is 18 µM; with MDA-MB-231 breast, 17 µM; in the test on NCI-H460 lung it was 25.9 µM; with SK-MEL-5 melanoma, 23.6 µM. The TGI in the test on RPMI-8226 leukemia was 70 µM; in the test with HOP-62 NSCLC, 26.1 µM; in the test on NCI-H226 lung, 49.8 µM; in the test on T-47D breast it was 42.6 µM; in the test on MDA-MB-435, 37.2 µM; with HT29 colon, greater than 100 µM. In addition, the TGI is 32.5 µM with HCT-15 colon, 36.6 µM in the test with MDA-MB-231 breast, 60.5 µM in the test on NCI-H460 lung and 52.3 µM in the test with SK-MEL-5 melanoma.

With `O=[N+]([O-])c1cc(O)c(O)cc1-c1cn2ccsc2n1`, the GI50 with RPMI-8226 leukemia was 54.6 µM; in the test with HOP-62 NSCLC, 36.1 µM; in the test with NCI-H226 lung, 76.7 µM; in the test with T-47D breast it was greater than 100 µM; in the test on MDA-MB-435 it was 47.3 µM; in the test with HT29 colon, 28.7 µM. For the same compound, the GI50 in the test with HCT-15 colon was 38.5 µM; in the test on MDA-MB-231 breast, 59.2 µM; in the test on NCI-H460 lung, 46.9 µM; in the test with SK-MEL-5 melanoma it was 16.3 µM. The TGI with RPMI-8226 leukemia, in the test on HOP-62 NSCLC, in the test with NCI-H226 lung, in the test with T-47D breast, in the test with MDA-MB-435 and with HT29 colon was greater than 100 µM throughout. Further, the TGI in the test with HCT-15 colon was greater than 100 µM; in the test with MDA-MB-231 breast, greater than 100 µM; with NCI-H460 lung, greater than 100 µM; with SK-MEL-5 melanoma, 54.8 µM.

For the compound `O=CN1N=C(c2ccc(Nc3ccnc4cc(Cl)ccc34)cc2)CC1c1ccccc1` (stereo not given), the GI50 in the test with RPMI-8226 leukemia was 2.55 µM; in the test on HOP-62 NSCLC it was 5.26 µM; in the test with NCI-H226 lung, 5.22 µM; with T-47D breast, 2.18 µM; with MDA-MB-435, 1.59 µM; with HT29 colon, 3.21 µM. The GI50 in the test with HCT-15 colon is 2.54 µM; with MDA-MB-231 breast, 2.43 µM; in the test with NCI-H460 lung it was 3.96 µM; in the test with SK-MEL-5 melanoma, 1.38 µM. In addition, the TGI with RPMI-8226 leukemia is 12.3 µM; in the test with HOP-62 NSCLC it was 76.5 µM; in the test on NCI-H226 lung, greater than 100 µM; in the test with T-47D breast, 7.42 µM; in the test with MDA-MB-435, 4.67 µM; in the test on HT29 colon it was 11.1 µM. For the same compound, the TGI in the test on HCT-15 colon is 14.4 µM; in the test with MDA-MB-231 breast, 13.7 µM; in the test on NCI-H460 lung, greater than 100 µM; in the test on SK-MEL-5 melanoma, 3.77 µM.

For `O=c1[nH]cnc2c1nnn2C1OC(CO)C(O)C1O` (stereo not given), the GI50 is 1.33 µM in the test on RPMI-8226 leukemia; 2.67 µM in the test on HOP-62 NSCLC; 4.88 µM with NCI-H226 lung; 0.736 µM in the test on T-47D breast; 3.51 µM in the test with MDA-MB-435; 2.15 µM with HT29 colon. The GI50 in the test on HCT-15 colon was 1.21 µM; in the test on MDA-MB-231 breast, 4.49 µM; in the test with NCI-H460 lung, 1.11 µM; in the test with SK-MEL-5 melanoma, 5.59 µM. In addition, the TGI in the test with RPMI-8226 leukemia is 21.5 µM; with HOP-62 NSCLC, greater than 100 µM; in the test on NCI-H226 lung, greater than 100 µM; in the test on T-47D breast, greater than 100 µM; with MDA-MB-435 it was greater than 100 µM; in the test with HT29 colon, greater than 100 µM. For the same compound, the TGI in the test on HCT-15 colon was greater than 100 µM; in the test with MDA-MB-231 breast, greater than 100 µM; in the test on NCI-H460 lung it was greater than 100 µM; in the test with SK-MEL-5 melanoma it was 30.3 µM.

For `CC/C=C\C/C=C\C[C@H](O)C/C=C1/C(=O)C=C[C@H]1C/C=C\CCC(=O)OC`, the GI50 was 1.59 µM in the test on RPMI-8226 leukemia; 3.17 µM in the test on HOP-62 NSCLC; 2.32 µM in the test on NCI-H226 lung; 2.93 µM in the test with T-47D breast; 2.35 µM in the test on MDA-MB-435; 2.68 µM with HT29 colon. In addition, the GI50 is 1.85 µM with HCT-15 colon, 3.5 µM with MDA-MB-231 breast, greater than 8.25 µM in the test with NCI-H460 lung and 1.94 µM with SK-MEL-5 melanoma. The TGI with RPMI-8226 leukemia is 5.01 µM; with HOP-62 NSCLC, greater than 8.25 µM; in the test with NCI-H226 lung, greater than 8.25 µM; in the test on T-47D breast, greater than 8.25 µM; in the test on MDA-MB-435 it was greater than 8.25 µM; with HT29 colon it was 6.79 µM. Besides, the TGI in the test with HCT-15 colon is 6.47 µM; in the test on MDA-MB-231 breast, greater than 8.25 µM; with NCI-H460 lung it was greater than 8.25 µM; in the test on SK-MEL-5 melanoma, 6.21 µM.

As for `N#Cc1cccc(C(=O)c2cnn(-c3ccc(F)cc3)c2N)c1`, the GI50 in the test on RPMI-8226 leukemia was greater than 25 µM; in the test on HOP-62 NSCLC, greater than 17.2 µM; in the test on NCI-H226 lung it was greater than 25 µM; in the test with T-47D breast, greater than 25 µM; with MDA-MB-435, greater than 25 µM; in the test on HT29 colon, greater than 25 µM. In addition, the GI50 with HCT-15 colon, with MDA-MB-231 breast, with NCI-H460 lung and in the test with SK-MEL-5 melanoma was greater than 25 µM in each case. For the same compound, the TGI in the test with RPMI-8226 leukemia, in the test on HOP-62 NSCLC, in the test with NCI-H226 lung, in the test on T-47D breast, in the test on MDA-MB-435 and in the test with HT29 colon was greater than 25 µM throughout. For the same compound, the TGI with HCT-15 colon, in the test on MDA-MB-231 breast, in the test with NCI-H460 lung and with SK-MEL-5 melanoma was greater than 25 µM each time.
